US20130079299A1, “Arthritis Therapeutic Agent” (GLUCAN CORPORATION, priority 2010, published 2013)

Key:
[1] = tested on: rheumatoid arthritis (RA) DBA mouse caused by collagen; assay: Collagen-induced rheumatoid arthritis (RA) mouse model, histomorphometry of thymus, spleen and knee joint; assay type: in vivo
Source text: Bone tissue was amputated from around the thymus and spleen and fixed in 10% neutral formalin, and was then dehydrated and paraffin embedded to provide a 3-4 μm longitudinal section, then dyed with Hematoxylineosin and observed under an optical microscope. In addition, the knee joint of both the rear legs were removed from the around connective tissue and fixed in 10% neutral formalin, and then it was decalcificated using a decalcification solution containing 24.4% of formic acid and 0.5 N of sodium hydroxide for 5 days. […] Then the section was dyed with Hematoxylineosin and observed under the optical microscope. […] DMI, Korea) in the view of a 40×-magnification microscope, and the thickness of articular cartilage of the femur and tibia of the knee joint, the proteoglycan loss, and erosion were evaluated by an automated image analyzer (DMI-300 Image Processing; DMI, Korea) in the view of a 100×-magnification microscope according to the known method [Dudler et al., 2000; van Holten et al., 20 04; Kim et al., 2007]. The proteoglycan loss was evaluated into 3 levels for stainability of Safranin O dye specialized for proteoglycans according to the known method [Williams et al., 1992; Dudler et al., 2000; van Holten et al., 2004]. In other words, 0 indicates no proteoglycan loss, and 3 indicates no stainability because of complete deflection. […] The RA(Rhematoid Arthritis)-induced mouse model using collagen is one of the animal models that are widely used for evaluating the efficacy on RA for various materials [Liu et al., 2008; Miyake et al., 2008; Pa nayi et al., 2008], and RA was caused by the auto-immunity.

[2] = tested on: Sprague-Dawley rats caused to have osteoarthritis; assay: Osteoarthritis caused by anterior cruciate ligament transection and partial medial meniscectomy, 84 days administration
Procedure: Sprague-Dawley rats (male, 6 week-old, SLC., JAPAN) [ANNEX I-III] were prepared as laboratory animals.
Six experimental groups were formed, with 8 Sprague-Dawley Rats in each group. […] In addition, a negative control group was an OA control group which was treated with nothing after causing osteoarthritis, and a positive control group was administered 2 mg/kg of diclofenac sodium after causing osteoarthritis.
The medium for the administration was sterilized distilled water at 5 ml/kg.
For the positive control, 2 mg/kg of the diclofenac sodium was transdermally administered at 1 ml/kg of normal saline as a medium every day for 84 days.
Each experimental rat was anesthetized with Zoletile 50 (Vir bac Lab., France), and the left articular capsule was exposed and underwent anterior cruciate ligament transaction and partial medial meniscectomy to cause osteoarthritis. For the sham surgery group, the articular capsule was excised to observe the medial meniscus inside the organ and closed without surgical removal.
Weight change and knee joint thickness change were monitored and measured once a week for 84 days from administration, and on the final day, the maximum stretching angle of the knee joint and the knee joint thickness after exposing the capsule were measured under Safranin O dye, respectively. The Makin scores of the femur and tibia and the cartilage thickness were then histomorphometrically measured, and the articular cartilages of the femur and tibia were each evaluated for BrdU immunoreactivity.

[3] = Diclofenac sodium treated group (dose not given)
[4] = Diclofenac sodium treated group (dose not given), average ± SD of 8 animals
[5] = Diclofenac sodium treated group (dose not given), ± SD of 16 joints
[6] = diclofenac sodium group (dose not given)
[7] = diclofenac sodium 2 mg/kg transdermal daily 84 days

## O=C(O)Cc1ccccc1Nc1c(Cl)cccc1Cl [Diclofenac sodium, diclofenac sodium]
[1]; [3]
  Cortex thickness (thymus): 1.333 ± 0.705 mm/lobules
  Total thickness (thymus): 1.941 ± 0.916 mm/lobules
[1]; [4]
  Entire thickness (spleen): 4.464 ± 0.58 mm/central part
  Number of white medulla (spleen): 10.500 ± 2.121 /1 mm^2
  Thickness of white medulla (spleen): 0.986 ± 0.304 mm/white medulla
[1]; [5]
  Erosion level (Max = 3), femur articular cartilage: 1.000 ± 0.000
  Erosion level (Max = 4), tibia articular cartilage: 0.500 ± 1.000
  Safranin level (Max = 3), femur articular cartilage: 0.500 ± 0.577
  Safranin level (Max = 3), tibia articular cartilage: 1.500 ± 0.577
  Thickness (mm) of tibia articular cartilage: 0.169 ± 0.024 mm
  Thickness of the femur articular cartilage: 0.470 ± 0.674 mm
[1]; all Polycan groups except 21.25 mg/kg in the tibia, diclofenac sodium group
  collagen-induced RA opinion (proteoglycan loss, erosion, cartilage thickness of knee joint): remarkably suppressed
[1]; [6]
  Safranin O score of femur articular cartilage, change compared to the RA control group: −63.64%
  Safranin O score of the tibia articular cartilage, change compared to the RA control group: −29.41%
  diameter of the spleen white medulla, change compared to the RA control group: −8.14%
  entire spleen thickness, change compared to the RA control group: 17.49%
  entire thymus thickness, change compared to the RA control group: −2.80%
  erosion score of the femur articular cartilage, change compared to the RA control group: −36.00%
  erosion score of the tibia articular cartilage, change compared to the RA control group: −75.00%
  number of spleen white medulla, change compared to the RA control group: 5.00%
  thickness of the femur joint cartilage, change compared to the RA control group: 333.70%
  thickness of the thymus cortex, change compared to the RA control group: 18.83%
  thickness of the tibia articular cartilage, change compared to the RA control group: 38.75%
[2]; [7]
  BrdU immunoreactive cell number in the femur articular cartilage, change compared to the OA control group: 9.52%
  BrdU immunoreactive cell number in the tibia articular cartilage, change compared to the OA control group: 1.56%
  Mankin score of the femur, change compared to the OA control group: −27.85%
  Mankin score of the tibia, change compared to the OA control group: −20.59%
  maximum stretching angle of knee joint, change compared to the OA control group: −18.18%
  thickness of the knee joint after exposing the joint capsule, change compared to the OA control group: −0.99%
  thickness of the knee joint in the final autopsy, change compared to the OA control group: −5.79%
[2]; diclofenac sodium 2 mg/kg transdermal daily 84 days, b105
  articular cartilage thickness of the femur, change compared to the OA control group: 35.11%
[2]; each of the three-dose Polycan and diclofenac sodium groups, from 21 days after administration, p<0.01 or p<0.05
  thickness of the knee joint compared to osteoarthritis-caused control group over time: significantly decreased
